In test [1] the test system is LTD4 evoked ileal contractions (guinea pig ileum). In words: Inhibition of LTD4 evoked contractions in isolated ileum (single submaximal LTD4 response, five minute drug exposure). The note with it: Cavia porcellus, read-out: Percent inhibition of LTD4 evoked ileal contractions; for inhibition at 1 µM: Compound concentration 1 × 10^-6 M; for inhibition at 3 µM: Compound concentration 3 × 10^-6 M; for inhibition at 0.1 µM: Compound concentration 1 × 10^-7 M; for inhibition at 0.3 µM: Compound concentration 3 × 10^-7 M. The format is cell-based, Male, Hartley guinea pigs. As for the experimental part: (§1) A section of terminal ileum was removed, the lumen cleaned, and the tissue divided into 2.5 cm. segments. The ilea were mounted in 10 ml. tissue baths containing Krebs-bicarbonate solution of the following composition in mmoles/ liter: KCl, 4.6; CaCl2 ·2H2 O, 1.2; KH2 PO4, 1.2; MgSO4 ·7H2 O, 1.2; NaCl, 118.2; NaHCO3, 24.8; and dextrose, 10.0. The bath fluid was maintained at 37° C. and aerated with 95 percent oxygen and 5 percent CO2. In addition, the buffer contained 1×10^- 6M atropine to reduce ileal spontaneous activity. Isometric measurements were made with a Grass FTO3C force-displacement transducer and recorded on a Grass polygraph as change in grams of force. A passive force of 0.5 g. was applied to the tissues. After an appropriate equilibration period, single submaximal control responses to pure LTD4 were obtained. Following a five minute exposure of the ileum to an experimental drug, the control concentration of LTD4 was added to the tissue bath. The response of the ileum to LTD4 in the presence of the drug was compared to the response in the absence of the drug. For some of the drugs in this series a more detailed analysis of LTD4 antagonism was made. In these experiments, cumulative concentration-response curves were obtained to LTD4 in guinea pig ileum and trachea. This was followed by a 30 minute incubation with various concentrations of the experimental drug. The concentration response curve to LTD4 was then repeated in the presence of the antagonist. Only one concentration of antagonist was used on a single tissue. KB values were calculated by the method of Furchgott [Ann. N.Y. Acad. Sci., 139, 553 (1967)]using the following equation. [formula]

The target of test [2] is T1, LTD4 (guinea pig ileum and trachea) (Cavia porcellus, UniProt Q2NNR5).
T1 construct: A section of terminal ileum was removed, the lumen cleaned, and the tissue divided into 2.5 cm. segments; from tissue; host or cells: isolated ileum and trachea of guinea pig (ileum: male Hartley, terminal ileum)
T1 sequence (Q2NNR5 1-340): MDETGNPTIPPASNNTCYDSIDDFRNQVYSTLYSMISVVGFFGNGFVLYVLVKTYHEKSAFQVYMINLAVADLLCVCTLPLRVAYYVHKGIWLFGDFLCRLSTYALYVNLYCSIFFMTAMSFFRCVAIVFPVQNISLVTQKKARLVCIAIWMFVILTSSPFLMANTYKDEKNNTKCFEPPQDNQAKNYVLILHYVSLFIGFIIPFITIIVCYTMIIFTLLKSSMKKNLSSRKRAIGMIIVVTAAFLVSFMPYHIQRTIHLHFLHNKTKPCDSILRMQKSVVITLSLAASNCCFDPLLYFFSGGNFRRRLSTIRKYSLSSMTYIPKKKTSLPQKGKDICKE
The experiment in a line: LTD4 antagonism, cumulative concentration-response curves to LTD4 (KB / pA2, Schild). The note with it: negative log of KB, 30 minute incubation. The format is cell-based. The protocol: as §1, with “Male, Hartley guinea pigs weighing 200-450 grams were killed by decapitation. A section” for “A section”
Dose ratio refers to the concentration of agonist required to elicit 50 percent of the maximal response (ED50) in the presence of the antagonist divided by the ED50 in the absence of the antagonist. Calculations were performed with the aid of a computer and a digital plotter.

Here are results for 12 molecules from patent publication US4764521A, “Leukotriene antagonists and a method of use there as” (Eli Lilly and Company, priority 1986, dated 1988).

Structures are written as SMILES.

On to `CCCc1c(OCCCCCC(=O)O)ccc(Cl)c1Cl` [Example 1, 6-(2-Propyl-3,4-dichlorophenoxy)hexanoic acid], for which, in test [1], the inhibition (as a rule, the percentage by which the read-out fell short of the control) at 1 µM was found to be 51% and the inhibition at 3 µM came out at 78%.

Take `CCCc1c(OCCCCc2nnn[nH]2)ccc(Cl)c1Cl` [Example 2, 5-[4-(2-Propyl-3,4-dichlorophenoxy)butyl]-tetrazole]: in test [1], the inhibition at 1 µM worked out at 94%, the inhibition at 0.1 µM is 56% and the inhibition at 0.3 µM was found to be 70%. In addition, the antagonist equilibrium constant (Kb) (commonly the affinity of an antagonist, worked out from how it opposes an agonist) in test [2] was 100 nM.

Consider `CCCc1c(OCCCCCc2nnn[nH]2)ccc(Cl)c1Cl` [Example 3, 5-[5-(2-Propyl-3,4-dichlorophenoxy)pentyl]-tetrazole], for which, in test [1], the inhibition at 1 µM came out at 75%, the inhibition at 3 µM is 92% and the inhibition at 0.3 µM was 51%. For the same molecule, the antagonist equilibrium constant (Kb) in test [2] (*estimated) is 251 nM.

For the molecule `CCCc1c(OCCCCCCc2nn[nH]n2)ccc(Cl)c1Cl` [Example 4, 5-[6-(2-Propyl-3,4-dichlorophenoxy)hexyl]-tetrazole], in test [1], the inhibition at 1 µM was 84% and the inhibition at 3 µM amounted to 96%. Further, the pA2 (commonly a measure of antagonist potency on a negative log scale) in test [2] (*estimated) is on record as 7.0.

For the molecule `CCCc1c(OCCCCc2nnn[nH]2)ccc(C(C)=O)c1Cl` [Example 5, 5-[4-(2-Propyl-3-chloro-4-acetylphenoxy)butyl]-tetrazole], in test [1], the inhibition at 0.1 µM is 49% and the inhibition at 0.3 µM turned out to be 73%. Also, in test [2] (*estimated), the antagonist equilibrium constant (Kb) is 105 nM.

Regarding `CCCCCCCCc1c(OCCCCCCc2nnn[nH]2)ccc(Cl)c1Cl` [Example 6, 5-[6-(2-Octyl-3,4-dichlorophenoxy)hexyl]-tetrazole], in test [1], the inhibition at 1 µM came to 53% and the inhibition at 3 µM amounted to 59%.

Take `CCCCCCCCCCCCc1c(OCCCCCc2nnn[nH]2)ccc(Cl)c1Cl` [Example 7, 5-[5-(2-Dodecyl-3,4-dichlorophenoxy)pentyl]tetrazole]: the inhibition at 3 µM in test [1] stood at 16%.

As to `CCCc1c(OCCCSc2nn[nH]n2)ccc(Cl)c1Cl` [Example 8, 5-[3-(2-Propyl1-3,4-dichlorophenoxy)propanethio]-tetrazole], in test [1], the inhibition at 0.1 µM amounted to 59% and the inhibition at 0.3 µM stood at 79%.

As for `CCCCCc1c(OCCCCCC(=O)O)ccc(Cl)c1Cl` [Example 9, 6-(2-Pentyl-3,4-dichlorophenoxy)hexanoic acid], in test [1], the inhibition at 1 µM stood at 21% and the inhibition at 3 µM amounted to 57%.

Consider `O=C(O)CCCCCOc1ccc(Cl)c(Cl)c1CCO` [Example 10, 6-[2-(2-Hydroxyethyl)-3,4-dichlorophenoxy]hexanoic acid], for which the inhibition at 3 µM in test [1] is 22%.

Consider `CCCc1c(OCCCCc2nnn[nH]2)ccc(Cl)c1O` [Example 11, 5-[4-(2-Propyl-3-hydroxy-4-chlorophenoxy)butyl]-tetrazole], for which the inhibition at 3 µM in test [1] amounted to 20%. The antagonist dissociation constant (Kb) in test [2] (*estimated) was 3160 nM.

Take `CCCc1c(OCCCCCCC(=O)O)ccc(Cl)c1Cl` [Example 12, 7-(2-Propyl-3,4-dichlorophenoxy)heptanoic acid]: the inhibition at 3 µM in test [1] came out at 31%.
